Consider 14 compounds from US20250340591A1, “COMPOSITION FOR PREVENTING OR TREATING INFLAMMATORY BOWEL DISEASE CONTAINING NOVEL COMPOUND” (ANYGEN CO., LTD., priority 2021, published 2025).

Square brackets hold non-standard residues; d marks the D form. Peptide text beside a SMILES is read from it. * marks the point of attachment. His(Trt) = N[C@@H](Cc1cn(C(c2ccccc2)(c2ccccc2)c2ccccc2)cn1)C(=O)O; His(τ-CHPh2) = N[C@@H](Cc1cn(C(c2ccccc2)c2ccccc2)cn1)C(=O)O; dPhe(4-Br) = N[C@H](Cc1ccc(Br)cc1)C(=O)O; dPhe(4-Cl) = N[C@H](Cc1ccc(Cl)cc1)C(=O)O; dPhe(4-Me) = Cc1ccc(C[C@@H](N)C(=O)O)cc1; d3Pal = N[C@H](Cc1cccnc1)C(=O)O; Octanoyl = CCCCCCCC(=O)*; Orn = NCCC[C@H](N)C(=O)O

For one data set, the target named is T1, GPR39 (Homo sapiens, UniProt O43194).
T1 sequence (O43194 1-453): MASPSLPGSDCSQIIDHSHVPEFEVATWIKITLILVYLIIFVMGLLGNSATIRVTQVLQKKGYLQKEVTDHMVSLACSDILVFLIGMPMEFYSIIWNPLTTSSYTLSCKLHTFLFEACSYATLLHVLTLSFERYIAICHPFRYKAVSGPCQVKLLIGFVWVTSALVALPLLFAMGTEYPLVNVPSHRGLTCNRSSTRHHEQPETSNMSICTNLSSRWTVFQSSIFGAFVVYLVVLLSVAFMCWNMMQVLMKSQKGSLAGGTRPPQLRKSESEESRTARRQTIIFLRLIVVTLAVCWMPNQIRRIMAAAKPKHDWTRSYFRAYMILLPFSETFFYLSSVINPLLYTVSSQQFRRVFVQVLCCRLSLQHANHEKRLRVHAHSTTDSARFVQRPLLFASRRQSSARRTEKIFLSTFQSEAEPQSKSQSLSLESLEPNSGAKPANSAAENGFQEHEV
Briefly: luciferase assay system (SRE luciferase reporter gene, CV-1 cells expressing GPR39).
Conditions: not given
The class given is cell-based. Details: expressed in transfected cells; host or cells: CV-1 fibroblast cell line (Korea Cell Line Bank), adenoviral transduction at 50 MOI. Background: Reporter assays use an easily measured gene product as a stand-in for the process of interest.
As for `CCCCCCCC(=O)NCCCC[C@H](NC(=O)[C@@H](N)Cc1cn(C(c2ccccc2)c2ccccc2)cn1)C(=O)N[C@H](Cc1ccc(C)cc1)C(=O)N[C@@H](Cc1ccc(O)cc1)C(N)=O` [HKFY-66, N-((S)-5-((S)-2-amino-3-(1-benzhydryl-1H-imidazol-4-yl)propanamido)-6-(((R)-1-(((S)-1-amino-3-(4-hydroxyphenyl)-1-oxopropan-2-yl)amino)-1-oxo-3-(p-tolyl)propan-2-yl)amino)-6-oxohexyl)octanamide] (H-[His(τ-CHPh2)]K(Octanoyl)[dPhe(4-Me)]Y-NH2), the “ECmax (−fold induction over basal)” value worked out at 20.2 ± 3.5 fold induction over basal.

With `CCCCCCCC(=O)NCCCC[C@H](NC(=O)[C@@H](N)Cc1cn(C(c2ccccc2)(c2ccccc2)c2ccccc2)cn1)C(=O)N[C@@H](Cc1ccccc1)C(=O)N[C@@H](Cc1ccc(O)cc1)C(=O)N[C@@H](CO)C(=O)N[C@@H](Cc1c[nH]cn1)C(=O)N[C@@H](CCC(N)=O)C(=O)N[C@@H](CCC(N)=O)C(=O)N[C@@H](C)C(=O)N[C@@H](CCCNC(=N)N)C(=O)N[C@@H](Cc1ccccc1)C(N)=O` [HKFY-40, (S)-2-((2S,5S,8S,11S,14S)-2-((1H-imidazol-4-yl)methyl)-14-((S)-2-amino-3-(1-trityl-1H-imidazol-4-yl)propanamido)-11-benzyl-8-(4-hydroxybenzyl)-5-(hydroxymethyl)-4,7,10,13,20-pentaoxo-3,6,9,12,19-pentaazaheptacosanamido)-N1-((S)-5-amino-1-(((S)-1-(((S)-1-(((S)-1-amino-1-oxo-3-phenylpropan-2-yl)amino)-5-guanidino-1-oxopentan-2-yl)amino)-1-oxopropan-2-yl)amino)-1,5-dioxopentan-2-yl)pentanediamide] (H-[His(Trt)]K(Octanoyl)FYSHQQARF-NH2), the “ECmax (−fold induction over basal)” value came out at 13.4 ± 0.02 fold induction over basal.

In the case of `CCCCCCCC(=O)NCCCC[C@H](NC(=O)[C@@H](N)Cc1cn(C(c2ccccc2)(c2ccccc2)c2ccccc2)cn1)C(=O)N[C@@H](Cc1ccccc1)C(=O)N[C@@H](CO)C(=O)O` [HKFY-50, N6-octanoyl-N2-(Nt-trityl-L-histidyl)-L-lysyl-L-phenylalanyl-L-serine] (H-[His(Trt)]K(Octanoyl)FS-OH), the “ECmax (−fold induction over basal)” value was 16.2 ± 1.5 fold induction over basal.

For the compound `CCCCCCCC(=O)NCCCC[C@H](NC(=O)[C@@H](N)Cc1cn(C(c2ccccc2)(c2ccccc2)c2ccccc2)cn1)C(=O)N[C@@H](Cc1ccc(O)cc1)C(=O)N[C@@H](Cc1ccccc1)C(=O)O` [HKFY-47, N6-octanoyl-N2-(Nt-trityl-L-histidyl)-L-lysyl-L-tyrosyl-L-phenylalanine] (H-[His(Trt)]K(Octanoyl)YF-OH), the “ECmax (−fold induction over basal)” value is recorded as 13 ± 1.7 fold induction over basal.

As to `CCCCCCCC(=O)NCCCC[C@H](NC(=O)[C@@H](N)Cc1cn(C(c2ccccc2)(c2ccccc2)c2ccccc2)cn1)C(=O)N[C@@H](Cc1ccccc1)C(=O)N[C@@H](Cc1ccc(O)cc1)C(=O)N[C@@H](Cc1c[nH]c2ccccc12)C(=O)O` [HKFY-44, N6-octanoyl-N2-(Nt-trityl-L-histidyl)-L-lysyl-L-phenylalanyl-L-tyrosyl-L-tryptophan] (H-[His(Trt)]K(Octanoyl)FYW-OH), the “ECmax (−fold induction over basal)” value is 20 ± 0.47 fold induction over basal.

Turning to `CCCCCCCC(=O)NCCCC[C@H](NC(=O)[C@@H](N)Cc1cn(C(c2ccccc2)(c2ccccc2)c2ccccc2)cn1)C(=O)N[C@H](Cc1cccnc1)C(=O)N[C@@H](Cc1ccc(O)cc1)C(=O)O` [HKFY-73, ((R)-2-((S)-2-((S)-2-amino-3-(1-trityl-1H-imidazol-4-yl)propanamido)-6-octanamidohexanamido)-3-(pyridin-3-yl)propanoyl)-L-tyrosine] (H-[His(Trt)]K(Octanoyl)[d3Pal]Y-OH), the “ECmax (−fold induction over basal)” value is recorded as 11.6 ± 2.3 fold induction over basal.

`CCCCCCCC(=O)NCCCC[C@H](NC(=O)[C@@H](N)Cc1cn(C(c2ccccc2)(c2ccccc2)c2ccccc2)cn1)C(=O)N[C@H](Cc1ccc(Br)cc1)C(=O)N[C@@H](Cc1ccc(O)cc1)C(=O)O` [HKFY-29, ((R)-2-((S)-2-((S)-2-amino-3-(1-trityl-1H-imidazol-4-yl)propanamido)-6-octanamidohexanamido)-3-(4-bromophenyl)propanoyl)-L-tyrosine] (H-[His(Trt)]K(Octanoyl)[dPhe(4-Br)]Y-OH): the “ECmax (−fold induction over basal)” value stood at 26.8 ± 1.87 fold induction over basal.

Consider `CCCCCCCC(=O)NCCC[C@H](NC(=O)[C@@H](N)Cc1cn(C(c2ccccc2)c2ccccc2)cn1)C(=O)N[C@H](Cc1ccc(C)cc1)C(=O)N[C@@H](Cc1ccc(O)cc1)C(=O)O` [HKFY-71, ((R)-2-((S)-2-((S)-2-amino-3-(1-benzhydryl-1H-imidazol-4-yl)propanamido)-5-octanamidopentanamido)-3-(p-tolyl)propanoyl)-L-tyrosine] (H-[His(τ-CHPh2)][Orn](Octanoyl)[dPhe(4-Me)]Y-OH), for which the “ECmax (−fold induction over basal)” value was 16.4 ± 2.51 fold induction over basal.

For the compound `CCCCCCCC(=O)NCCCC[C@@H](NC(=O)[C@@H](N)Cc1cn(C(c2ccccc2)(c2ccccc2)c2ccccc2)cn1)C(=O)N[C@H](Cc1ccc(Cl)cc1)C(=O)N[C@@H](Cc1ccc(O)cc1)C(=O)O` [HKFY-16, ((R)-2-((R)-2-((S)-2-amino-3-(1-trityl-1H-imidazol-4-yl)propanamido)-6-octanamidohexanamido)-3-(4-chlorophenyl)propanoyl)-L-tyrosine] (H-[His(Trt)][dK](Octanoyl)[dPhe(4-Cl)]Y-OH), the “ECmax (−fold induction over basal)” value was found to be 27.9 ± 3.4 fold induction over basal.

Consider `CCCCCCCC(=O)NCCCC[C@H](NC(=O)[C@H](CO)NC(=O)CNC(=O)[C@@H](N)Cc1cn(C(c2ccccc2)(c2ccccc2)c2ccccc2)cn1)C(=O)N[C@@H](Cc1ccccc1)C(=O)N[C@@H](Cc1ccc(O)cc1)C(=O)O` [HKFY-53, N6-octanoyl-N2-(Nt-trityl-L-histidylglycyl-L-seryl)-L-lysyl-L-phenylalanyl-L-tyrosine] (H-[His(Trt)]GSK(Octanoyl)FY-OH), for which the “ECmax (−fold induction over basal)” value amounted to 8 ± 2.12 fold induction over basal.

For the compound `CCCCCCCC(=O)NCCCC[C@H](NC(=O)[C@@H](N)Cc1cn(C(c2ccccc2)c2ccccc2)cn1)C(=O)O` [HKFY-79, N2-(Nt-benzhydryl-L-histidyl)-N6-octanoyl-L-lysine], the “ECmax (−fold induction over basal)” value is 11.2 ± 1.4 fold induction over basal.

Turning to `CCCCCCCC(=O)NCCCC[C@H](NC(=O)[C@@H](N)Cc1cn(C(c2ccccc2)(c2ccccc2)c2ccccc2)cn1)C(=O)N[C@@H](Cc1ccccc1)C(=O)N[C@@H](Cc1ccc(O)cc1)C(=O)N[C@@H](Cc1c[nH]cn1)C(=O)N[C@@H](CCC(N)=O)C(=O)N[C@@H](CCC(N)=O)C(=O)N[C@@H](C)C(=O)N[C@@H](CCCNC(=N)N)C(=O)N[C@@H](Cc1ccccc1)C(N)=O` [HKFY-42, (S)-2-((2S,5S,8S,11S)-2-((1H-imidazol-4-yl)methyl)-11-((S)-2-amino-3-(1-trityl-1H-imidazol-4-yl)propanamido)-8-benzyl-5-(4-hydroxybenzyl)-4,7,10,17-tetraoxo-3,6,9,16-tetraazatetracosanamido)-N1-((S)-5-amino-1-(((S)-1-(((S)-1-(((S)-1-amino-1-oxo-3-phenylpropan-2-yl)amino)-5-guanidino-1-oxopentan-2-yl)amino)-1-oxopropan-2-yl)amino)-1,5-dioxopentan-2-yl)pentanediamide] (H-[His(Trt)]K(Octanoyl)FYHQQARF-NH2), the “ECmax (−fold induction over basal)” value was found to be 11.8 ± 0.02 fold induction over basal.

Turning to `CCCCCCCC(=O)NCCCC[C@H](NC(=O)[C@@H](N)Cc1cn(C(c2ccccc2)c2ccc(OC)cc2)cn1)C(=O)N[C@H](Cc1ccc(C)cc1)C(=O)N[C@@H](Cc1ccc(O)cc1)C(=O)O` (stereo partly drawn) [HKFY-64, ((2R)-2-((2S)-2-((2S)-2-amino-3-(1-((4-methoxyphenyl)(phenyl)methyl)-1H-imidazol-4-yl)propanamido)-6-octanamidohexanamido)-3-(p-tolyl)propanoyl)-L-tyrosine], the “ECmax (−fold induction over basal)” value is 16 ± 1.5 fold induction over basal.

Staying with this data set, now noted: CV-1 cells, GPR39 and SRE luciferase adenovirus, 6 hours treatment.
Take `CCCCCCCC(=O)NCCCC[C@H](NC(=O)[C@@H](N)Cc1cn(C(c2ccccc2)(c2ccccc2)c2ccccc2)cn1)C(=O)N[C@@H](Cc1ccccc1)C(=O)N[C@@H](Cc1ccc(O)cc1)C(=O)N[C@@H](CO)C(=O)N[C@@H](CCC(N)=O)C(=O)N[C@@H](CC(=O)O)C(=O)NCC(=O)N[C@@H](C)C(=O)N[C@@H](CCCNC(=N)N)C(=O)N[C@@H](Cc1ccccc1)C(N)=O` [HKFY-41, (3S,6S,9S,12S,15S,18S)-3-((2-(((S)-1-(((S)-1-(((S)-1-amino-1-oxo-3-phenylpropan-2-yl)amino)-5-guanidino-1-oxopentan-2-yl)amino)-1-oxopropan-2-yl)amino)-2-oxoethyl)carbamoyl)-18-((S)-2-amino-3-(1-trityl-1H-imidazol-4-yl)propanamido)-6-(3-amino-3-oxopropyl)-15-benzyl-12-(4-hydroxybenzyl)-9-(hydroxymethyl)-5,8,11,14,17,24-hexaoxo-4,7,10,13,16,23-hexaazahentriacontanoic acid] (H-[His(Trt)]K(Octanoyl)FYSQDGARF-NH2): the “ECmax (−fold induction over basal)” value was 12.2 ± 0.02 fold induction over basal.

Staying with this data set, now noted: comment on Table 3.
For `CCCCCCCC(=O)NCCCC[C@H](NC(=O)[C@@H](N)Cc1cn(C(c2ccccc2)c2ccc(OC)cc2)cn1)C(=O)N[C@H](Cc1ccc(C)cc1)C(=O)N[C@@H](Cc1ccc(O)cc1)C(=O)O` (stereo partly drawn) [HKFY-64, ((2R)-2-((2S)-2-((2S)-2-amino-3-(1-((4-methoxyphenyl)(phenyl)methyl)-1H-imidazol-4-yl)propanamido)-6-octanamidohexanamido)-3-(p-tolyl)propanoyl)-L-tyrosine], the “activity level for GPR39 (in words)” value was “higher activity level than other HKFY derivatives”.
